The source of these data is publication PMC7063992, “Opossum Cathelicidins Exhibit Antimicrobial Activity Against a Broad Spectrum of Pathogens Including West Nile Virus” (Frontiers in Immunology, 2020).

Like-named read-outs stand apart in the source and are kept apart here.

Series [1] relates to Staphylococcus aureus ATCC 6538. Kind of series: microbe, parasite or virus in culture. The class given is cell-based. As to conditions: S. aureus ATCC 6538, MHB, 37°C 6 h + 2 h, triplicate. How it is done: (§1) Peptides corresponding to the predicted antimicrobial regions of ModoCath1 (ΔModoCath1, N-VKRTKRGARRGL […]-C), ModoCath5 (ΔModoCath5, N-[…]-C), ModoCath6 (ΔModoCath6, N-[…]-C) and PMAP36 (N-[…] PLGCG-C) were synthesized via solid-phase peptide synthesis and purified via high-performance liquid chromatography using a commercial service (GenScript, Piscataway Township, NJ, United States). The MIC of synthesized peptides was determined against a panel of bacteria comprising 3 gram-positive strains, Staphylococcus aureus ATCC 6538 (ATCC, Manassas, VA, United States), Bacillus cereus ATCC 10876, and Enterococcus faecalis ATCC 29212, and 3 gram-negative strains, Escherichia coli ATCC 25922, Pseudomonas aeruginosa ATCC 27853, and Salmonella typhimurium ATCC 14028. Ampicillin (Sigma Aldrich, St. Louis, MO, United States) and gentamicin sulfate (Sigma Aldrich) were used as controls for antimicrobial activity. The MIC was determined using a colorimetric method specified by the Microbial Viability Assay Kit-WST (Dojindo, Kumamoto, Japan) in accordance with the manufacturer’s protocol and the Clinical and Laboratory Standards Institute (CLSI) guidelines (2018). Briefly, four colonies of each bacterium were inoculated into 5 mL Luria-Bertani (LB) broth medium at 37°C for 4 to 6 h. The cells were washed with sterile saline (0.9% NaCl) twice and seeded in a single well of a 96-well plate at the cell density of 10^5 CFU/well. Subsequently, 180 μL/well of fresh Mueller-Hinton broth (MHB) was added to the plate. Different concentrations of each peptide and reference antibiotics were serially diluted in 10 μL of MHB and added to each well. The plate was incubated at 37°C for 6 h. Cation-adjusted MH broth (CAMHB) was used to culture E. faecalis. Subsequently, 10 μL of the coloring reagent was added, and cells were incubated at 37°C for 2 h. UV absorbance was measured for each well at 450 nm, using a microplate spectrophotometer (xMark spectrophotometer; Bio-Rad, Hercules, CA, United States). MIC values were determined when the difference in the optical density (OD) between treatments and blanks (media and coloring reagent only) decreased to < 0.05. Experiments were conducted in triplicate. […] The pH conditions were achieved by using acetic acid (Sigma Aldrich).

The test system of series [2] is Bacillus cereus ATCC 10876. Kind of series: microbe, parasite or virus in culture. The class given is cell-based. Particulars: B. cereus ATCC 10876, MHB, 37°C 6 h + 2 h, triplicate. The protocol: as §1
For series [3], the system named is Escherichia coli ATCC 25922. The series is described as follows: microbe, parasite or virus in culture. The class given is cell-based. As to conditions: E. coli ATCC 25922, MHB, 10^5 CFU/well, 37°C 6 h + 2 h with coloring reagent, OD 450 nm, triplicate. The protocol:
as §1

The test system of series [4] is Salmonella typhimurium ATCC 14028. Kind of series: microbe, parasite or virus in culture. Particulars: S. typhimurium ATCC 14028, MHB, 37°C 6 h + 2 h, triplicate. The class given is cell-based. How it is done: as §1
Series [5] deals with Enterococcus faecalis ATCC 29212. The series is described as follows: microbe, parasite or virus in culture. The format is cell-based. Particulars: E. faecalis ATCC 29212, CAMHB, 37°C 6 h + 2 h, triplicate. The protocol: as §1
Series [6] relates to Pseudomonas aeruginosa ATCC 27853. The series is described as follows: microbe, parasite or virus in culture. The format is cell-based. As to conditions: P. aeruginosa ATCC 27853, MHB, 37°C 6 h + 2 h, triplicate. The protocol: as §1
The subject of series [7] is Human primary keratinocytes. Kind of series: Viability of keratinocytes, XTT. The class given is cell-based. Particulars: positive control, concentration not given. An excerpt: The Ethics Committee of the Poitiers Hospital approved the use of human skin samples for research studies. All subjects provided written informed consent in accordance with the tenets of the Declaration of Helsinki. Normal abdominal or breast skin samples were obtained from patients undergoing plastic surgery and thoroughly washed with PBS free of calcium and magnesium (PBS; Gibco, Thermo Fisher Scientific, Waltham, MA, United States) after fat removal. The skin samples were minced into fragments of approximately 125 mm^2, using scalpel blades. Skin samples were incubated overnight at 4°C in a dispase solution (25 U/mL; Life Technologies, Carlsbad, CA, United States). Epidermal sheets were removed from the dermis, and keratinocytes were dissociated via trypsin digestion (trypsin-EDTA; Gibco) for 15 min at 37°C. The cell suspension was then filtered through a 280-μm sterile filter. DMEM (Gibco) supplemented with 10% (vol/vol) of FBS (Gibco) was added, and the suspension was centrifuged at 300 × g and 25°C for 10 min. Keratinocytes were seeded at a density of 10^7 cells in 75-cm^2 tissue culture flask in keratinocyte-serum free medium (K-SFM; Invitrogen, Carlsbad, CA, United States) supplemented with bovine pituitary extract (25 μg/mL; Invitrogen) and recombinant epidermal growth factor (EGF) (0.25 ng/mL; Invitrogen). The cultures were incubated at 37°C in a humidified atmosphere with 5% CO2 until 80% confluence and then stored frozen in liquid nitrogen until use. Finally, keratinocytes were seeded in sterile 24-well culture plates at 10^5 cells/well in K-SFM supplemented with bovine pituitary extract and EGF and cultured to 80% confluence. Cells were then starved overnight in K-SFM alone before stimulation.
Primary keratinocytes were cultured in 96-well plates at 4 × 10^4 cells per well in 0.1 mL K-SFM (Invitrogen) up to 80% confluence before being treated with various concentrations of ModoCath peptides for 24 h. Cell viability was assessed using the cell proliferation kit II (XTT; Roche, Basel, Switzerland) in accordance with the manufacturer’s protocol. The XTT labeling mixture was added after 24 h of incubation in the absence or presence of peptides at the indicated concentrations.
Background: Formazan colour is commonly taken as a measure of viable cells.

The subject of the next series is MCF7. Kind of series: Mammalian cell cytotoxicity, WST-1. The format is cell-based, human. As to conditions: positive control for complete cell lysis, concentration not given. How it is done: (§2) Two mammalian cell lines, including human embryonic kidney cells (HEK293T) and human breast cancer cells (MCF7) were cultured in Dulbecco’s modified Eagle’s medium (DMEM; Hyclone^TM, Logan, UT, United States) supplemented with 10% FBS (Hyclone^TM) and 1% penicillin/streptomycin (Hyclone^TM) and incubated at 37°C and 5% CO2 up to 80% confluence. Cellular adherence to the substratum was disrupted using Accutase (Innovative Cell Technologies, San Diego, CA, United States). In total, 1 × 10^4 to 4 × 10^4 cells in each well of a 96-well plate containing 8, 16, 32, and 64 μg/mL of ModoCath peptides were incubated for 24 h at 37°C and 5% CO2. Additionally, HEK293T cells were incubated in the FBS-free medium. Triton X 100 (Sigma Aldrich) was used as a positive control for complete cell lysis, and untreated cells were used as the negative control. After incubation, the medium was removed from the wells, and 10 μL of coloring solution (Cell Proliferation Reagent WST-1^TM; Sigma Aldrich) and 100 μL of DMEM (Hyclone^TM) were added to the wells in accordance with the manufacturer’s protocol. Absorbance was measured for each well at 440 nm (peptide-treated and control) and 650 nm (background) and recorded as the OD, using a microplate reader (xMark^TM spectrophotometer; Bio-Rad). Cell viability was calculated using the following equation:
(§3) (1) CellViability(%)=100×(ODpeptide-ODbackground)/(ODnegative-ODbackground)
(§4) All experiments were performed in triplicate.

In a further series the test system is HEK293T. The series is described as follows: Mammalian cell cytotoxicity, WST-1. The format is cell-based, human. As to conditions: positive control for complete cell lysis, concentration not given. How it is done: as §2, §3, §4
Setting [8] is: Staphylococcus aureus, ATCC6538, read-out: MIC.
Where [9] appears, read: Bacillus cereus, ATCC10876, read-out: MIC.
[10] abbreviates: Escherichia coli, ATCC25922, read-out: MIC.

In the case of `CN[C@H](CC(C)C)C(=O)N[C@H]1C(=O)N[C@@H](CC(N)=O)C(=O)N[C@H]2C(=O)N[C@H]3C(=O)N[C@H](C(=O)N[C@H](C(=O)O)c4cc(O)cc(O)c4-c4cc3ccc4O)[C@H](O)c3ccc(c(Cl)c3)Oc3cc2cc(c3O[C@@H]2O[C@H](CO)[C@@H](O)[C@H](O)[C@H]2O[C@H]2C[C@](C)(N)[C@H](O)[C@H](C)O2)Oc2ccc(cc2Cl)[C@H]1O` [Vancomycin], the values for the MIC in series [1] (setting [8]), in series [2] (setting [9]) and in series [3] (setting [10]) were 5 µg/mL, 4 µg/mL and 32 µg/mL, respectively.
`CC1(C)S[C@@H]2[C@H](NC(=O)[C@H](N)c3ccccc3)C(=O)N2[C@H]1C(=O)O` [Ampicillin, reference compound]: the MIC in series [1] (setting [8]) is 1 µg/mL; in series [4] (Salmonella enterica, read-out: MIC), 1 µg/mL; in series [2] (setting [9]), 16 µg/mL; in series [5] (Enterococcus faecalis, ATCC29212, read-out: MIC), 2 µg/mL; in series [6] (Pseudomonas aeruginosa, ATCC27853, read-out: MIC), greater than 128 µg/mL; in series [3] (setting [10]), 1 µg/mL.
For the molecule Triton X-100 [reference compound], the “Cell viability ± SD” value in series [7] was found to be 8.2 ± 0.4%; with MCF7, 11.4 ± 0.4%; in the series with HEK293T it was 11.6 ± 2.5%.
As for “gentamicin sulfate [Gentamycin, reference compound]”, the MIC in series [1] is listed as 1 (2.09) μg/mL; in series [4], 1 (2.09) μg/mL; in [2] it was 1 (2.09) μg/mL; in [5] it was 5 (10.45) μg/mL; in series [6] it was 1 (2.09) μg/mL; in [3] it was 1 (2.09) μg/mL.
In the case of Nisin, the MIC in [1] is given as 15 (4.47) μg/mL; in series [2], 32 (9.54) μg/mL; in series [3], > 32(9.54) μg/mL.
